{"source": "patent US20200123620A1", "about": "“MiRNA-574-5p AS A BIOMARKER FOR STRATIFICATION OF PROSTAGLANDIN E-DEPENDENT TUMORS” (priority 2017, published 2020)", "type_in_all_cases": "cell-based, human", "key": {"COX-2": {"tested_on": "COX-2", "assay": "COX-2 expression in transfected A549 cells (qRT-PCR, Western blot)", "details": "mRNA and protein", "description": "CUGBP1 and GW182 were transiently depleted using siRNA oligonucleotides. 24 h prior to transfection, A549 cells were seeded at a density of 5×10^5 cells/well in a 6-well plate. 20 pmol/μl siRNA oligonucleotides were transfected using Lipofectamine 2000N (Invitrogen, Karlsruhe, GER) according to manufacturer's instructions. For GW182 knockdown, MISSION® siRNA SAS1_Hs01_00244664 (Sigma-Aldrich, Darmstadt. GER) were used, respectively. For CUGBP1 knockdown a previously published siRNA (5′-GCUGUUUAUUGGUAUGAUU-3′; SEQ ID NO:5) was used for our experiments. As control, a siRNA with an unspecific sequence was used (5′-UCUCUCACAACGGGCAUUU-3′; SEQ ID NO: 6). […] The efficiency of CUGBP1 and GW182 knockdown was determined by qRT-PCR, Western blot and immunofluorescence staining.\n(§1) 1 μg of DNase-treated RNA was used for reverse transcription using High-Capacity RNA-to-cDNA Kit (Applied Biosystems, ThermoFisher Scientific, Waltham, USA) according to manufacturer's instructions. […] 1 μl cDNA (1:2 diluted) was used per reaction. β-Actin was used as endogenous control to normalize variations in cDNA quantities in different samples.\n(§2) To obtain a whole cell lysate, A549 cells were lysed in T-PER™ tissue protein extraction reagent (Life Technologies, ThermoFisher Scientific, Waltham, USA) for 30 min at 4° C. […] The protein content was determined by Bradford assay (BioRad Laboratories, Hercules, USA). […]"}, "mPGES-1": {"tested_on": "mPGES-1", "assay": "mPGES-1 expression in transfected A549 cells (qRT-PCR, Western blot)", "details": "IL-1β 24 h, then 24 h stimulus-free medium", "description": "CUGBP1 and GW182 were transiently depleted using siRNA oligonucleotides. 24 h prior to transfection, A549 cells were seeded at a density of 5×10^5 cells/well in a 6-well plate. 20 pmol/μl siRNA oligonucleotides were transfected using Lipofectamine 2000N (Invitrogen, Karlsruhe, GER) according to manufacturer's instructions. For GW182 knockdown, MISSION® siRNA SAS1_Hs01_00244664 (Sigma-Aldrich, Darmstadt. GER) were used, respectively. For CUGBP1 knockdown a previously published siRNA (5′-GCUGUUUAUUGGUAUGAUU-3′; SEQ ID NO:5) was used for our experiments. As control, a siRNA with an unspecific sequence was used (5′-UCUCUCACAACGGGCAUUU-3′; SEQ ID NO: 6). Cells were harvested 24 h and 48 h after transfection. The efficiency of CUGBP1 and GW182 knockdown was determined by qRT-PCR, Western blot and immunofluorescence staining.\n24 h prior to transfection, A549 cells were seeded at a density of 5×10^5 per well in a 6-well plate. 20 pmol/μl miRIDIAN miR-574-5p mimics (HM10794, Sigma-Aldrich, Darmstadt, GER) or negative control (HMC0002, Sigma-Aldrich, Darmstadt, GER) were transfected using Lipofectamine 2000® according to the manufacturer's instructions. In the same way, the A549 cells were transfected with 40 pmol/μl miR-574-5p-LNA™ inhibitor (4101451-001) or negative control (199006-001, Exiqon, Kopenhagen, DEN) for the knockdown of miR-574-5p. The transfection efficiency was determined by qRT-PCR.\nas §1, §2"}, "A549 cells": {"tested_on": "A549 cells", "assay": "MTT cell proliferation assay", "details": "data not shown", "description": "For the detection of viable cells, an MTT (3-(4,5-dimethylthiazol-2-yl)-2,5-diphenyltetrazolium bromide) tetrazolium (Carl Roth, Karlsruhe, GER) reduction assay was performed. 24 h prior transfection, A549 cells were seeded at a density of 1×10^4 cells per well in 96-well plates. For the MTT reduction assay, 20 μl of 5 mg/ml MTT (in PBS) was added to the cells in culture and so incubated for 4 h. The medium was removed and 100 μl DMSO (Carl Roth, Karlsruhe, GER) was added. The quantity of formazan was measured by recording changes in the absorbance at 570 nm using a plate reading spectrophotometer. As a reference the wavelength of […] was used to correct for nonspecific background."}}}
{"substance": "5′-GCUGUUUAUUGGUAUGAUU-3′ (listed as RNA, chemistry not given here) [ΔCUGBP1]", "values": [{"measurement": "COX-2 level", "setting": "COX-2", "result": "uninfluenced"}, {"measurement": "mPGES-1 protein expression", "setting": "mPGES-1; Western blot", "result": "strongly upregulated"}, {"measurement": "mPGES-1 3′UTR isoform expression", "setting": "mPGES-1; qRT-PCR", "result": "further increases"}, {"measurement": "mPGES-1 mRNA expression", "setting": "mPGES-1; qRT-PCR", "result": "significantly upregulates"}, {"measurement": "IL1β-induced cell proliferation of A549 cells", "setting": "A549 cells", "result": "enhanced"}]}
